Legend:
Female BALB/c mice [1] = assay: In vivo safety of hEPO mRNA lipid nanoparticle: serum alanine aminotransferase (ALT) enzyme activity; conditions: hEPO mRNA LNP, 300 μL IV, serum 12 h after injection; FIG. 1
Experimental: A human erythropoietin mRNA (hEPO mRNA)-encapsulating lipid nanoparticle formulation was prepared according to the method as described in Experimental Example 1, with replacing the luciferase mRNA (Fluc mRNA) with human erythropoietin mRNA (hEPO mRNA), with a concentration of hEPO mRNA of 0.2 g/L, a mass ratio of hEPO mRNA to Lipid of 1:10, a particle size of 90-130 nm, and an encapsulation efficiency of above 90% or higher.
(§1) Animal preparation: Female BALB/c mice of 6-8 weeks old were selected and raised in an SPF grade breeding room. Animal testing was conducted in strict accordance with the guidelines of national health institutions and animal ethics requirements.
In vivo Delivery: Prior to injection of the test LNP formulations, the LNP formulations were gently and repeatedly inverted to thoroughly mix the formulation samples. A corresponding amount of the formulation samples were aspirated with a 1 ml insulin syringe, and the LNP formulations were injected by tail vein injection (IV), with 5 mice per formulation. Each mouse was injected with 300 μL of the human erythropoietin mRNA (hEPO mRNA)-encapsulating lipid nanoparticle formulation.
Serum acquisition: Blood samples of mice were collected 12 h after injection, placed in tubes without anticoagulants, and naturally coagulated at room temperature for 30-60 min, and then centrifuged at a speed of 3500 rpm for 10 min to obtain the supernatant, which was the serum.
The detection of alanine transaminase was carried out according to instructions of the kit (Nanjing Jiancheng Bioengineering Institute, Catalog. No. C009-2-1), and a standard curve was made using the standard provided in the kit. D-PBS was used in the experiment, which was purchased from Sangon Biotech (Shanghai) Co., Ltd., Catalog No. E607009-0600.
The method of detection of enzyme activity of alanine aminotransferase (ALT) in serum of the mice is as follows:
• (1) Enzymatic reaction: 0, 2, 4, 6, 8 and 10 μL of […] sodium pyruvate standard solution were sequentially added to 5 μL of 0.1 mol/L phosphate buffer, and the volume was supplemented to 25 μL with a matrix solution, and repeatedly aspirating and spitting with a pipette for mixing well; • (2) Addition reaction: 20 μL 2,4-dinitrophenylhydrazine solution was added to all reaction wells in (1), mixed by aspirating and spitting, and then placed in an incubator at 37° C. to react for 20 min; • (3) Developing: 200 μL of 0.4 mol/L NaOH solution was added to all reaction wells in (2) to stop the reaction, mixed by aspirating and spitting, and incubated at room temperature for 15 min. The OD value of each well was measured at 510 nm in a microplate reader; and • (4) Data processing of standard curve: The corresponding absolute OD value for each well was obtained by subtracting the OD value for 0 μL well from the measured OD value for each well, the corresponding ALT Karmen units being 0, 28, 57, 97, 150 and 200 U/L, respectively. The standard curve was obtain by taking the absolute OD value as the abscissa and the corresponding Karmen unit as the ordinate.
• (1) Reagent preparation: an ALT matrix solution was placed in an incubator at 37° C. for preheating; • (2) Enzymatic reaction: 5 μL diluted serum was aspirated and added to a 96-well plate, then 20 μL matrix solution was added to the corresponding sample well and mixed by repeatedly aspirating and spitting to avoid bubbling, and then placed in an incubator at 37° C. for 30 min; • (3) Addition reaction: 20 μL 2,4-dinitrophenylhydrazine was added to all reaction wells in (2), mixed by aspirating and spitting, and then reacted in an incubator at 37° C. for 20 min; • (4) Developing: 200 μL of 0.4 mol/L NaOH solution was added to all reaction wells in (3) to stop the reaction, mixed by aspirating and spitting, and then incubated at room temperature for 15 min. […]

[2] = Preparation and characterisation of mRNA-encapsulating lipid nanoparticle (encapsulation efficiency, particle size); format: physicochemical; conditions: LNP encapsulating Fluc mRNA; Lipid:DSPC:CHO-HP:M-DMG-2000 48:10:40.5:1.5
Experimental: A specified amount of Fluc mRNA stock solution, 0.2 M sodium acetate buffer, and DEPC water were added to a container, and mixed well to obtain a water phase;
The amino lipid compound of the present disclosure, a helper lipid, a structural lipid, and a PEG-lipid were separately dissolved in absolute ethanol to prepare respective solutions at concentrations of 20 mg/mL, 10 mg/mL, 20 mg/mL, and 25 mg/mL, respectively. The above four solutions were pipetted at a molar ratio of Lipid:DSPC:CHO—HP:M-DMG-2000 of 48:10:40.5:1.5, and mixed well to prepare an alcohol phase. • (2) Encapsulation: The water phase and the alcohol phase were injected into a microfluidic chip at a flow rate of water phase: alcohol phase=12 mL/min: 4 mL/min by using a microfluidic preparation instrument (MPE-L2), and encapsulation was carried out at a flow rate of water phase: alcohol phase=9 mL/min: 3 mL/min to obtain mRNA-encapsulating lipid nanoparticle (mRNA-LNP). • (3) Dialysis: The product of step (2) was loaded in a dialysis bag and placed in a Tris Buffer-8% sucrose solution for replacement to remove ingredients such as residual ethanol, unassembled lipids. Dialysis was conducted for 2 h with magnetic stirring at room temperature and under protection from light (dialysate was replaced every 1 hour). • (4) The product of step (3) was sterilized by passing through a […] microporous membrane, and then packaged.
Lipid nanoparticle formulations encapsulating Fluc mRNA were prepared, with a concentration of Fluc mRNA of 0.2 g/L, a mass ratio of Fluc mRNA to Lipid of 1:10, a particle size of 80-130 nm, and a encapsulation efficiency of 85% or higher.
The encapsulation efficiency of the lipid nanoparticle encapsulating luciferase mRNA (Fluc mRNA) with a representative amino lipid compound and the fluorescence expression intensity induced by the same are shown in Table 4, with the amino lipid compound 118 as a control. […]

Female BALB/c mice [3] = assay: Performance evaluation of in vivo delivery of Fluc mRNA lipid nanoparticle (IVIS, body and organs); conditions: Fluc mRNA LNP; for Liver (fluorescence expression intensity) / Spleen (fluorescence expression intensity): 75 μL IV; for Liver (fluorescence expression intensity) / Spleen (fluorescence expression intensity) / Total flux (fluorescence expression intensity) / (Spleen/Total Flux) * 100%: 6 hours after injection; for Liver (fluorescence expression intensity) / Spleen (fluorescence expression intensity) / Total flux (fluorescence expression intensity): IVIS; for Total flux (fluorescence expression intensity): 75 μL tail vein injection (IV); for (Spleen/Total Flux) * 100% / Multiple of spleen delivery/total delivery to amino lipid compound 118: IV; for Multiple of spleen delivery/total delivery to amino lipid compound 118: relative to amino lipid compound 118
Experimental: as §1
In vivo Delivery: prior to injection of the test LNP formulations, the LNP formulations were gently and repeatedly inverted to thoroughly mix the formulation samples. A corresponding amount of the formulation samples were aspirated with a 1 ml insulin syringe, and the LNP formulations were injected by tail vein injection (IV), with 3 mice in duplicate per formulation. Each mouse was injected with 75 μL of the luciferase mRNA (Fluc mRNA)-encapsulating lipid nanoparticle formulation prepared in Experimental Example 1.
6 hours after injection of LNP formulations, mice were injected with 200 μL D-Luciferin luciferase developing substrate (Catalog No. 122799; Manufacturer: Perkin Elmer). After the substrate was injected, the mice were anesthetized with isoflurane inhalation, and the injection time of luciferase developing substrate was recorded.
The encapsulation efficiency of the lipid nanoparticle encapsulating luciferase mRNA (Fluc mRNA) with a representative amino lipid compound and the fluorescence expression intensity induced by the same are shown in Table 4, with the amino lipid compound 118 as a control.
The multiple of spleen delivery/total delivery of fluorescence expression intensity induced by lipid nanoparticle encapsulating luciferase mRNA (Fluc mRNA) with a representative amino lipid compound to amino lipid compound 118 is shown in Table 5.

Female BALB/c mice [4] = assay: Humoral immunity test for total binding IgG antibody (ELISA, SARS-COV-2 antigen protein) in serum of immunized mice; format: in vivo; conditions: IN002.5.1 mRNA LNP, 50 μL IM, serum on 14th day after immunization; FIG. 5-6
Female BALB/c mice [5] = assay: IFN-γ Elispot cellular immunity test, spleen lymphocytes of mice immunized with IN002.5.1 mRNA LNP; format: in vivo; conditions: 50 μL IM, spleen on 7th day after immunization, FIG. 2-4
Experimental: An IN002.5.1 mRNA-encapsulating lipid nanoparticle formulation was prepared according to the method as described in Experimental Example 1, with replacing the luciferase mRNA (Fluc mRNA) with IN002.5.1 mRNA, with a concentration of IN002.5.1 mRNA of 0.2 g/L, a mass ratio of IN002.5.1 mRNA to Lipid of 1:10, a particle size of 80-130 nm, and an encapsulation efficiency of 90% or higher.
The sequence of IN002.5.1 mRNA is one obtained by replacing all uracil (u) in SEQ ID NO. 1 with N1-methylpseudouridine. Of note is that the t (thymine) in the RNA sequence, SEQ ID NO. 1, in the Sequence Listing is actually u (uracil), according to the WIPO Standard ST. 26 for nucleotide or amino acid sequence listing.
as §1
Immunization of mice: Prior to injection of the test LNP formulations, the LNP formulations were gently and repeatedly inverted to thoroughly mix the formulation samples. A corresponding amount of the formulation samples were aspirated with a 1 ml insulin syringe, and the LNP formulations were injected by intramuscular injection (IM) […], with 8 mice per formulation. Each mouse was injected with 50 μL of the IN002.5.1 mRNA encapsulating lipid nanoparticle formulation.
Spleen acquisition: On the 7th day after immunization, 3 to 4 mice from each LNP immunization group were selected and euthanized, and their spleens were acquired in a super clean bench.
Isolation of lymphocytes: The spleens of mice were taken out in a super clean bench. 7 mL of mouse lymphocyte separation solution was added to a 6-well cell culture plate. Mouse spleen cells were ground with a syringe piston, and the suspension of the spleen cells was filtered through a cell screen and immediately transferred to a 15 mL centrifuge tube. […] RPMI 1640 medium was slowly added with keeping the liquid interface distinct. After centrifugation at 800 g with a horizontal rotor at room temperature for 30 minutes, a clear stratification can be visible. The lymphocyte layer was aspirated, then added with 10 mL RPMI 1640 medium, and inverted for washing. The cells were collected by centrifugation at 250 g for 10 min at room temperature, and the red blood cells were lysed. After completing lysis of red blood cells, the supernatant was poured, and the cells were resuspended in culture medium and counted.
Addition of stimulant and culture of lymphocyte: RPMI-1640 medium containing 10% fetal bovine serum was used to activate the pre-coated plate. After standing at room temperature for at least 30 min, the medium was removed, and a cell suspension at adjusted concentration was added ([…]). The medium used to resuspend the cells was used as a background negative control. 10 μL positive stimulant working solution (PMA+Ionomycin (dissolved in DPBS) was added to a positive control well; […] medium used to resuspend the cells was added to a negative control well; 10 µL/well of a peptide library diluted with RPMI 1640 was added to experimental wells. After all samples and the stimulant were added, the plate was covered, incubated in an incubator with 5% CO2 at 37° C. for 16-24 h.
Elispot detection after culture: The cells and the culture medium in the wells were dumped, and the wells were lysed with 200 μL/well of ice-cold deionized water at 4° C. for 10 min. The liquid in the wells were shaken out, and the wells were washed five times with PBS buffer. The wells were incubated with 100 μL/well of 1 μg/ml detection antibody for 2 h at room temperature; and after washing the plate 5 times with PBS, the wells were incubated with 100 μL/well of 1000-fold diluted enzyme labeled avidin (Streptavidin-HRP) for 1 h at room temperature. […]

CCCCCCC(CCCCCC)OC(=O)CCCCCCCCC(CCCCCCCCC(=O)OC(CCCCCC)CCCCCC)OC(=O)N(CCCCCC(=O)OCCCC)CCCN(C)C [Compound 252]
ALT enzyme activity (Karmen unit) compared to ALC0315 and SM-102 (Female BALB/c mice [1]): significantly lower ALT enzyme activity

CCCCCCC(CCCCCC)OC(=O)CCCCCCCCC(CCCCCCCCC(=O)OC(CCCCCC)CCCCCC)OC(=O)N(CCCCC(=O)OCCCC)CCCN(C)C [Compound 255]
ALT enzyme activity (Karmen unit) compared to ALC0315 and SM-102 (Female BALB/c mice [1]): significantly lower ALT enzyme activity

CCCCCCC(CCCCCC)OC(=O)CCCCCCCCC(CCCCCCCCC(=O)OC(CCCCCC)CCCCCC)OC(=O)N(CCCC(=O)OCCCC)CCCN(C)C [Compound 259]
ALT enzyme activity (Karmen unit) compared to ALC0315 and SM-102 (Female BALB/c mice [1]): significantly lower ALT enzyme activity
Encapsulation efficiency [2]: 94.08%
Liver (fluorescence expression intensity) (Female BALB/c mice [3]): 1.37E+08
Spleen (fluorescence expression intensity) (Female BALB/c mice [3]): 1.29E+07
Total flux (fluorescence expression intensity) (Female BALB/c mice [3]): 6.40E+08
(Spleen/Total Flux) * 100% (Female BALB/c mice [3]): 2.02%
Multiple of spleen delivery/total delivery to amino lipid compound 118 (Female BALB/c mice [3]): 5.93

CCCCCCC(CCCCCC)OC(=O)CCCCCCCCC(CCCCCCCCC(=O)OC(CCCCCC)CCCCCC)OC(=O)N(CCCC(=O)OCCCCC)CCCN(C)C [Compound 260]
ALT enzyme activity (Karmen unit) compared to ALC0315 and SM-102 (Female BALB/c mice [1]): significantly lower ALT enzyme activity
Encapsulation efficiency [2]: 95.36%
Liver (fluorescence expression intensity) (Female BALB/c mice [3]): 9.60E+07
Spleen (fluorescence expression intensity) (Female BALB/c mice [3]): 3.27E+06
Total flux (fluorescence expression intensity) (Female BALB/c mice [3]): 4.11E+08
(Spleen/Total Flux) * 100% (Female BALB/c mice [3]): 0.80%
Multiple of spleen delivery/total delivery to amino lipid compound 118 (Female BALB/c mice [3]): 2.34

CCCCCCC(CCCCCC)OC(=O)CCCCCCCCC(CCCCCCCCC(=O)OC(CCCCCC)CCCCCC)OC(=O)N(CCCN(C)C)CC(=O)OCCC [Compound 269]
Humoral immunity effect (IgG titer) compared to ALC0315 (Female BALB/c mice [4]): better humoral immunity effect

CCCCCCC(CCCCCC)OC(=O)CCCCCCCCC(CCCCCCCCC(=O)OC(CCCCCC)CCCCCC)OC(=O)N(CCCCC(=O)OC(C)CC)CCCN(C)C (stereo not shown) [Compound 302]
Cellular immunity effect (IFN-γ Elispot) compared to ALC0315 (Female BALB/c mice [5]): better cellular immunity effect

CCCCCCC(CCCCCC)OC(=O)CCCCCCCCC(CCCCCCCCC(=O)OC(CCCCCC)CCCCCC)OC(=O)N(CCCC(=O)OC(C)C)CCCN(C)C [Compound 307]
Cellular immunity effect (IFN-γ Elispot) compared to ALC0315 (Female BALB/c mice [5]): better cellular immunity effect
